Laboratory results reported in patent US5171835A, “LHRH antagonists” (The Administrators of the Tulane Educational Fund, priority 1991, dated 1992).
Read-outs that look alike come from different tables or passages of the source. Square brackets hold non-standard residues; d marks the D form. dPhe(4-Cl) = N[C@H](Cc1ccc(Cl)cc1)C(=O)O; d2Nal = N[C@H](Cc1ccc2ccccc2c1)C(=O)O; dCit = NC(=O)NCCC[C@@H](N)C(=O)O; d3Pal = N[C@H](Cc1cccnc1)C(=O)O

Columns and labels:
[1] = cited from earlier work
LHRH = settings: prior art; cited from earlier work
[2] = tested on: Dunning R3327 prostate cancer; assay: In vivo antitumor effect, Dunning R3327 prostate cancer in rats; set-up: species or system rat; settings: for Size of tumor, treated group: 25 μg/day, ± SD
Protocol: Inhibition of growth of cancerous tumors in rats with compounds of Formula I was tested as described by Szende et al. (J. Natl. Cancer Inst., 82, 513-517, 1990; Szende et al., Cancer Research), 50, 3716-3721, 1990) by A. V. Schally and T. Redding (Proc. Natl. Acad. Sci. US, 84, 7279-7282, 1987), and by E. Korkut et al. (Proc. Natl. Acad. Sci. US, accepted for publication). Peptide 8 was dissolved in 45% aqueous propylene-glycol and was administered at a dose of 25 μg/day from an ALZET minipump to male rats bearing the androgen-dependent well-differentiated R3327 Dunning rat prostate adenocarcinoma. Tumors were measured weekly with microcalipers and tumor volumes were calculated. Duration of the treatment was 8 weeks, changing the minipumps at the end of the 4th week.

[3] = tested on: membrane receptors of human breast cancer cells; assay: Receptor binding, human breast cancer cell membranes (125I-[D-Trp6]LHRH as labelled ligand); settings: 125I-[D-Trp]6 LHRH labelled ligand; for Affinity Constant Ka 1: NB = no binding
Protocol: Affinity of peptides to rat pituitary and human breast cancer cell membranes is determined by using labelled LHRH and [D-Trp^6 ]LHRH. The assay is carried out similarly to that described by T. Kadar et al., Proc. Natl. Acad. Sci. USA, 85, 890-894 (1988) and M. Fekete et al., Endocrinology, 124, 946-955 (1989).

[4] = tested on: perfused rat pituitary cell system (LH response to LH-RH); assay: LH-RH inhibiting activity in superfused rat pituitary cell system; format: cell-based
Protocol: Immediately after that, a mixture containing the same concentration of peptide and 3 nM LHRH is administered for 3 min. This was followed by four consecutive infusions of 3 nM LHRH for 3 min (1 ml perfusate) at 30 min intervals (30, 60, 90, 120 min). LH content of the 1 ml fractions collected is determined by radioimmunoassay (RIA).

LH and FSH levels = assay: In vivo effect on LH and FSH levels in castrated male rats; set-up: species or system rat; settings: s.c.; for inhibition of LH levels forty-eight hours after injection: dose of 5 μg; for duration of significant decrease in the LH levels: p<0.01
Protocol: (d) In vivo effect on LH and FSH levels was measured as described by L. Bokser et al. (Proc. Natl. Acad. Sci. US, accepted for publication.) Castrated male rats weighing 350-410 grams anaesthetized with urethane were injected subcutaneously with Peptide 7 and 8 in doses of 1.25 μg and 5.0 μg. Blood samples were taken from the jugular vein before injection and 1, 2, 3, 4, 6, 24 and 48 hours after the administration of peptides. Control animals were injected only with saline. LH and FSH levels were determined by specific RIAs.

[5] = rats bearing Dunning R3327H prostate cancer
[6] = antagonist to LH-RH ratio 1:1, 0 min
[7] = antagonist to LH-RH ratio 1:1, 30 min
[8] = antagonist to LH-RH ratio 1:1, 60 min
[9] = antagonist to LH-RH ratio 1:1, 90 min
[10] = antagonist to LH-RH ratio 3:1, 0 min
[11] = antagonist to LH-RH ratio 3:1, 30 min
[12] = antagonist to LH-RH ratio 3:1, 60 min
[13] = antagonist to LH-RH ratio 3:1, 90 min

Substance	LHRH antagonist / ovulation inhibition potency (LHRH)	Affinity Constant Ka 2 [3]	Affinity Constant Ka 1 [3]	% inhibition of LH response [4, 6]	% inhibition of LH response [4, 7]	% inhibition of LH response [4, 8]	% inhibition of LH response [4, 9]	% inhibition of LH response [4, 10]	% inhibition of LH response [4, 11]	% inhibition of LH response [4, 12]	% inhibition of LH response [4, 13]	inhibition of LH levels forty-eight hours after injection (LH and FSH levels; 48 hours, p<0.05)	duration of significant decrease in the LH levels (LH and FSH levels)	further results
Ac-[d2Nal][dPhe(4-Cl)][d3Pal]SY[dCit]LRP[dA]-NH2	high inhibitory effect													side effects ([1]; prior art): no edematogenic and anaphylactoid side effects
Ac-D-Nal(2)-D-Phe(4Cl)-D-Pal(3)-Ser-Tyr-D-Lys[A2 pr(Ac)2 ]-Leu-Arg-Pro-D-Ala-NH2 [Peptide 8]		6.16 µM⁻¹	1.57 nM⁻¹	64%	39%	27%	22%	99%	66%	47%	37%	significant inhibition	more than 24 hours	Size of tumor, treated group ([2]; week 0): 4001 ± 1617 mm^3; Size of tumor, treated group ([2]; week 1): 5459 ± 1863 mm^3; Size of tumor, treated group ([2]; week 2): 5892 ± 1938 mm^3; Size of tumor, treated group ([2]; week 3): 6357 ± 2327 mm^3; Size of tumor, treated group ([2]; week 4, p<0.05): 6237 ± 2974 mm^3; Size of tumor, treated group ([2]; week 5, p<0.05): 7447 ± 3481 mm^3; Size of tumor, treated group ([2]; week 6, p<0.05): 8038 ± 4374 mm^3; Size of tumor, treated group ([2]; week 7, p<0.01): 8129 ± 3525 mm^3; Tumor doubling time ([2]; Dunning R3327H prostate cancer, rats, control group 12 days): 42 days; body weight during the treatment [2, 5]: did not change; weight of testis, seminal vesicles and ventral prostate [2, 5]: greatly reduced; activity on LH levels forty-eight hours after injection (LH and FSH levels; dose of 1.25 μg, 48 hours, p<0.05): active
[Ac-D-Nal(2)^1,D-Phe(4Cl)^2,D-Trp^3,D-hArg(Et)2^6,D-Ala^10 ] [Detirelix]	powerful antagonist													side effects ([1]; in vivo): hypotensive and bradycardic side effect
Ac-D-Nal(2)-D-Phe(4Cl)-D-Pal(3)-Ser-Tyr-D-Lys[A2 pr(Car)2 ]-Leu-Arg-Pro-D-Ala-NH2 [Peptide 7]		5.72 µM⁻¹	6.27 nM⁻¹	57%	51%	45%	41%	96%	78%	70%	58%	significant inhibition	more than 24 hours	
